In one experiment the target is T1, OX40R-IgG1 (Homo sapiens, UniProt P43489).
T1 construct: extracellular portion of human OX40R (amino acids 1-208 of SWISSPROT Acc. No P43489); human IgG1 constant region (hinge, CH2 and CH3); made in house; purified from the supernatant on protein G
T1 sequence (P43489 29-208): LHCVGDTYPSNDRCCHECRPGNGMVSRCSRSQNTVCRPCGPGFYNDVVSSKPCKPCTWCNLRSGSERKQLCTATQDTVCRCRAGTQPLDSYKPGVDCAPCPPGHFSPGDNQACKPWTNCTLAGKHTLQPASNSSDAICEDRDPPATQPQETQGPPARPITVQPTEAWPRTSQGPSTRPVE
The experiment in a line: Fluorescence quenching assay of OX40R-IgG1. Format: binding. As for the experimental part:
The fluorescence quenching assay was performed as previously described (Golabek A et al., 2000). OX40R-IgG1 (35 micrograms) was dissolved in 500 microliters of PBS and the fluorescence spectum was recorded at 295-420 nanometers with an excitation wavelength of 290 nanometers using a spectrofluorimeter (Perkin Elmer LS50B) with the slits set at 5 nanometers. Fluorescence spectra of human OX40R-IgG1 were then recorded in the presence of increasing concentrations (5-1000 nM) of P5 and P5-1 peptides after 15 minutes of equilibration. The fluorescence change at 336 nanometers was plotted versus peptide concentration and the resulting curves were analyzed by nonlinear regression fit with Prism® software (GraphPad).
The affinity of the peptides identified in Example 1 as inhibitor of OX40L-OX40R interaction was evaluated by fluorescence quenching spectroscopy, a technology allowing such measurements in solution, under native conditions and without beads or other supports. This method is based on monitoring the changes in the intrinsic fluorescence of a protein (OX40R-IgG1) upon its binding with another protein (P5 or P5-1). […]

Experiment [1] deals with T2, OX40L-OX40R interaction (OX40R-IgG1 / OX40L-CD8) (Homo sapiens, UniProt P43489).
T2 sequence (P43489 29-208): T1 sequence (P43489 29-208)
The experiment can be described thus: Alphascreen-based competition assay (displacement of OX40L-CD8 from OX40R-IgG1). In kind it is binding. The settings on record: for inhibition of binding of OX40R to OX40L (in words): Alphascreen-based competition assay. The method, then:
Alphascreen™ modified acceptor and donor beads were purchased (Biosignal Packard). OX40R-IgG1 and OX40L-CD8 fusion proteins were immobilized, respectively, onto protein A-conjugated acceptor beads and, by the means of a biotinylated anti-CD8 antibody, onto streptavidin-conjugated donor beads.
The binding assay was performed using Costar® 384-well white polystyrene plates (Corning). Each well of a 384-well plate contained a reaction mix having a volume of 25 microliters. Each of the five components of the reaction mix (OX40R-IgG1, OX40L-CD8, biotinylated anti-CD8, streptavidin-conjugated donor beads, and Protein A-conjugated acceptor beads) was added in a volume of 5 microliters. All dilutions were made in assay buffer (Phosphate Buffer Saline and 0.1% BSA), with or without dimethyl sulfoxide (DMSO).
In the standard assay, OX40-IgG1 and OX40L-CD8 were incubated together for 30 minutes, and then biotinylated anti-CD8 antibody (10 nM) was added. Following another incubation period of 30 minutes, streptavidin donor beads (20 μg/ml) and Protein A acceptor beads (20 μg/ml) were added to each individual well. The plate was counted 1 hour later using a Packard Fusion™ reader (Biosignal Packard) set at a read time of 1 second/well. Owing to the light sensitivity of the donor and acceptor beads, the experiments were carried out under blue light and all incubation periods were performed at room temperature. The plate was read at an excitation wavelength of 680 nanometers combined with a shorter emission wavelength of 520-620 nanometers.
All KD, IC50 and EC50 values were calculated using Prism® software (Graphpad Software). The transformation of IC50 values into Ki values was performed using the Cheng-Prusoff equation (Cheng Y C and Prusoff W H, 1973).
The ability of two known competitors of OX40L-OX40R interactions (untagged recombinant human soluble OX40L and suramin), which are themselves unable to generate an Alphascreen™ signal in this assay in absence of OX40L-CD8, to displace OX40L-CD8 from OX40R-IgG1 was investigated. The displacement experiments were performed, taking into consideration the approximate KD value, with a concentration of OX40L-CD8 (40 nM) that was 4 times greater than that of the OX40R-IgG1 (10 nM). Increasing concentrations of OX40L (3 μM-0.1 pM) or suramin (1 mM[…]1 nM) were added to a reaction mixture also containing OX40-IgG1 (10 nM) and OX40L-CD8 (40 nM). […] This latter value for suramin is similar to reported values for inhibition of TNF-α binding to the TNF receptor (Gray P W et al., 1990).
The soluble components (OX40-IgG1, OX40L-CD8 and biotinylated anti-CD8 antibody) were mixed at the concentration described before for the competition assays with OX40L and suramin (FIG. 4), together with various concentrations of each peptide in a 5 microliter volume into a first addition step. The streptavidin donor and Protein A acceptor beads were added 30 minutes later. The plates were incubated for 2 hours in the dark, at room temperature and with shaking, before reading at a long excitation wavelength of 680 nm combined with a shorter emission wavelength of 520-620 nanometers, as described in Example 1.
In general terms: Alpha assays give light when donor and acceptor beads are brought close together.

Another experiment concerns the target T3, OX40R (Homo sapiens, UniProt P43489).
T3 sequence (P43489 29-277): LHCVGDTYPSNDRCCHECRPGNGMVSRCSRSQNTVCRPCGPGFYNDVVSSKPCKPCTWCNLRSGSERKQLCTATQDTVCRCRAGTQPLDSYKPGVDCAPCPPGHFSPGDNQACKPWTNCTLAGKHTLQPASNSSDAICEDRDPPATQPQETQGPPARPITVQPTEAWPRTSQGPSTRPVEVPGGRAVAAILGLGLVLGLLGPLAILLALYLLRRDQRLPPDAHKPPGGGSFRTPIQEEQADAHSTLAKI
The settings on record: literature value; read-out: Kd of OX40L (homotrimer) for OX40R; cited from earlier work.

pIC50, pKd, pKi: −log10 of the molar value. Peptide text beside a SMILES is read from it.

At OX40R-IgG1, `CC[C@H](C)[C@H](NC(=O)[C@H](CC(N)=O)NC(=O)[C@@H](NC(=O)[C@H](CCC(=O)O)NC(=O)[C@H](CCC(N)=O)NC(=O)[C@H](CO)NC(=O)[C@H](Cc1ccccc1)NC(=O)[C@H](Cc1ccc(O)cc1)NC(=O)CN)C(C)C)C(=O)N[C@@H](CO)C(=O)O` [P5-1, GYFSQEVNIS] (H-GYFSQEVNIS-OH; N-terminus and C-terminus assumed) showed a pKd of roughly 7.61.

With `CC[C@H](C)[C@H](N)C(=O)N[C@H](C(=O)N[C@@H](CC(N)=O)C(=O)N[C@@H](CS)C(=O)N[C@@H](CC(=O)O)C(=O)NCC(=O)N[C@@H](Cc1ccccc1)C(=O)N[C@@H](Cc1ccc(O)cc1)C(=O)N[C@@H](CC(C)C)C(=O)N[C@H](C(=O)N[C@@H](CO)C(=O)N[C@@H](CC(C)C)C(=O)N[C@@H](CCCCN)C(=O)NCC(=O)N[C@@H](Cc1ccc(O)cc1)C(=O)N[C@@H](Cc1ccccc1)C(=O)N[C@@H](CO)C(=O)N[C@@H](CCC(N)=O)C(=O)N[C@@H](CCC(=O)O)C(=O)N[C@H](C(=O)N[C@@H](CC(N)=O)C(=O)N[C@H](C(=O)N[C@@H](CO)C(=O)N[C@@H](CC(C)C)C(=O)N[C@@H](Cc1c[nH]cn1)C(=O)N[C@@H](Cc1ccc(O)cc1)C(=O)N[C@@H](CCC(N)=O)C(=O)N[C@@H](CCCCN)C(=O)N[C@@H](CC(=O)O)C(=O)N[C@@H](CCC(=O)O)C(=O)N[C@@H](CCC(=O)O)C(=O)O)[C@@H](C)CC)C(C)C)[C@@H](C)CC)[C@@H](C)CC` [P5] (H-IINCDGFYLISLKGYFSQEVNISLHYQKDEE-OH; N-terminus and C-terminus assumed), the “inhibition of binding of OX40R to OX40L (in words)” value in experiment [1] is reported as “micromolar range”.

In the case of `Cc1ccc(C(=O)Nc2ccc(S(=O)(=O)O)c3cc(S(=O)(=O)O)cc(S(=O)(=O)O)c23)cc1NC(=O)c1cccc(NC(=O)Nc2cccc(C(=O)Nc3cc(C(=O)Nc4ccc(S(=O)(=O)O)c5cc(S(=O)(=O)O)cc(S(=O)(=O)O)c45)ccc3C)c2)c1` [suramin, Suramin, reference compound], the pIC50 in experiment [1] (OX40-IgG1 10 nM, OX40L-CD8 40 nM, read-out: IC50 for competition of OX40L-CD8 binding) is 4.10. Besides, the pKi in experiment [1] (OX40-IgG1 10 nM, OX40L-CD8 40 nM, read-out: Ki (Cheng-Prusoff from IC50)) was 4.58.

On to “EKGFILTSQKEDEIMKVQNNSVIINCDGFYL (human OX40R binding peptides) [P4, peptide corresponding to amino acids 72-102 of human OX40L]”, for which, in experiment [1], the “inhibition of binding of OX40R to OX40L (in words)” value is listed as “bind OX40R very poorly”.

With “OX40L: recombinant human soluble OX40L, extracellular portion, prepared as GST fusion in baculovirus system; b9 value is for natural homotrimer”, the pKd in the experiment with OX40R is 9.40 to 9.70. In experiment [1] (OX40-IgG1 10 nM, OX40L-CD8 40 nM), the “-log IC50±SEM” value was determined as 8.23±0.35.

The term pKd denotes −log10 of the Kd, conventionally taken in molar units. Usually pIC50 stands for the IC50 on a negative log10 scale, so that one unit is a factor of ten. One may read the pKi as −log10 of the Ki, conventionally taken in molar units.

Source of the values: patent publication US7858765B2, “OX40R binding agents” (Merck Serono SA, priority 2002, dated 2010).
